# Data reported in PubChem BioAssay AID256 (DTP/NCI, 2004).
# Inconclusive results and toxic doses are left out.
# System: CD2F1 mice, L1210 leukemia ip, survival T/C
# Assay: NCI In Vivo Anticancer Drug Screen. Data for tumor model L1210 Leukemia (intraperitoneal) in CD2F1 (CDF1) mice
# Conditions: higher = longer survival
# How it was run: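 Mice carrying a transplanted tumor received test compound or vehicle alone. The value is the measurement in the treated group divided by that in the vehicle-treated control group.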
# [1] = endpoint: mean survival time, dose: 100.0 mg/kg/injection, schedule: Q01DX009 (ip), vehicle: saline with Tween-80
# [2] = endpoint: mean survival time, dose: 100.0 mg/kg/injection, schedule: Q04DX003 (ip), vehicle: saline with Tween-80
# [3] = endpoint: mean survival time, dose: 200.0 mg/kg/injection, schedule: Q01DX009 (ip), vehicle: saline with Tween-80
# [4] = endpoint: mean survival time, dose: 200.0 mg/kg/injection, schedule: Q04DX003 (ip), vehicle: saline with Tween-80
# [5] = endpoint: mean survival time, dose: 400.0 mg/kg/injection, schedule: Q04DX003 (ip), vehicle: saline with Tween-80
structure (smiles),measurement,setting,value
C[Si](C)(C)OC1CC(=O)OC1n1cc(F)c(=O)[nH]c1=O (stereo not drawn),T/C,"endpoint: median survival time, dose: 12.5 mg/kg/injection, schedule: Q01DX005 (ip), vehicle: saline",103 % of control
same,T/C,"endpoint: median survival time, dose: 25.0 mg/kg/injection, schedule: Q01DX005 (ip), vehicle: saline",107 % of control
same,T/C,"endpoint: median survival time, dose: 50.0 mg/kg/injection, schedule: Q01DX005 (ip), vehicle: saline",113 % of control
same,T/C,"endpoint: median survival time, dose: 100.0 mg/kg/injection, schedule: Q01DX005 (ip), vehicle: saline",116 % of control
Cc1cc(C)c(C)c(C(O)(C(=O)O)c2ccccc2)c1 (stereo not drawn),T/C,[1],100 % of control
same,T/C,[2],97 % of control
same,T/C,[3],88 % of control
same,T/C,[4],101 % of control
same,T/C,"endpoint: mean survival time, dose: 400.0 mg/kg/injection, schedule: Q01DX009 (ip), vehicle: saline with Tween-80",96 % of control
same,T/C,[5],92 % of control
Nc1nc(-c2ccccc2)c(Br)c(=O)[nH]1,T/C,[2],104 % of control
same,T/C,[4],96 % of control
same,T/C,[5],93 % of control
CN(C)P(=O)(OP(=O)(N(C)C)N(C)C)N(C)C,T/C,"endpoint: mean survival time, dose: 2.0 mg/kg/injection, schedule: Q04DX003 (ip), vehicle: saline",102 % of control
same,T/C,"endpoint: mean survival time, dose: 4.0 mg/kg/injection, schedule: Q04DX003 (ip), vehicle: saline",98 % of control
same,T/C,"endpoint: mean survival time, dose: 8.0 mg/kg/injection, schedule: Q04DX003 (ip), vehicle: saline",100 % of control
COC(C(OC)N1CCOCC1)N1CCOCC1 (stereo not drawn),T/C,[2],89 % of control
same,T/C,[4],89 % of control
CCCCCCC[CH2][Sn]1([CH2]CCCCCCC)[O]C2C(CO)OC(n3ccc(=O)[nH]c3=O)C2[O]1 (stereo not drawn),T/C,"endpoint: mean survival time, dose: 12.5 mg/kg/injection, schedule: Q01DX005 (ip), vehicle: other",100 % of control
same,T/C,"endpoint: mean survival time, dose: 25.0 mg/kg/injection, schedule: Q01DX005 (ip), vehicle: other",90 % of control
same,T/C,"endpoint: mean survival time, dose: 50.0 mg/kg/injection, schedule: Q01DX005 (ip), vehicle: other",91 % of control
same,T/C,"endpoint: mean survival time, dose: 100.0 mg/kg/injection, schedule: Q01DX005 (ip), vehicle: other",94 % of control
same,T/C,"endpoint: mean survival time, dose: 200.0 mg/kg/injection, schedule: Q01DX005 (ip), vehicle: other",91 % of control
O=C(Nc1ccccc1)OCC1CC2C=CC1C2 (stereo not drawn),T/C,"endpoint: mean survival time, dose: 75.0 mg/kg/injection, schedule: Q01DX001 (ip), vehicle: saline with Tween-80",111 % of control
same,T/C,"endpoint: mean survival time, dose: 150.0 mg/kg/injection, schedule: Q01DX001 (ip), vehicle: saline with Tween-80",94 % of control
same,T/C,"endpoint: mean survival time, dose: 300.0 mg/kg/injection, schedule: Q01DX001 (ip), vehicle: saline with Tween-80",94 % of control
CC(C)CCC(=O)c1ccoc1,T/C,"endpoint: median survival time, dose: 0.12 mg/kg/injection, schedule: Q03HX015 (ip), vehicle: saline with Tween-80",100 % of control
same,T/C,"endpoint: median survival time, dose: 0.25 mg/kg/injection, schedule: Q03HX015 (ip), vehicle: saline with Tween-80",103 % of control
same,T/C,"endpoint: median survival time, dose: 0.5 mg/kg/injection, schedule: Q03HX015 (ip), vehicle: saline with Tween-80",101 % of control
same,T/C,"endpoint: median survival time, dose: 1.0 mg/kg/injection, schedule: Q03HX015 (ip), vehicle: saline with Tween-80",100 % of control
same,T/C,"endpoint: median survival time, dose: 2.0 mg/kg/injection, schedule: Q03HX015 (ip), vehicle: saline with Tween-80",96 % of control
O=C(O)c1ccccc1C(=O)Nc1ccc(Cl)cc1,T/C,[1],95 % of control
same,T/C,[2],94 % of control
same,T/C,[3],89 % of control
same,T/C,[4],96 % of control
same,T/C,[5],86 % of control
CCOC(=O)c1cc(C)nc2c(Cl)cc(Cl)cc12,T/C,[1],87 % of control
same,T/C,[2],87 % of control
same,T/C,[3],87 % of control
same,T/C,[4],88 % of control
same,T/C,[5],86 % of control
CCC([NH-])(CC)C[NH-].[Cl][Pt+2][Cl],T/C,"endpoint: mean survival time, dose: 0.39 mg/kg/injection, schedule: Q04DX003 (ip), vehicle: saline with Tween-80",101 % of control
same,T/C,"endpoint: mean survival time, dose: 0.79 mg/kg/injection, schedule: Q04DX003 (ip), vehicle: saline with Tween-80",102 % of control
same,T/C,"endpoint: mean survival time, dose: 1.56 mg/kg/injection, schedule: Q04DX003 (ip), vehicle: saline with Tween-80",107 % of control
same,T/C,"endpoint: mean survival time, dose: 3.12 mg/kg/injection, schedule: Q04DX003 (ip), vehicle: saline with Tween-80",108 % of control
same,T/C,"endpoint: mean survival time, dose: 3.13 mg/kg/injection, schedule: Q04DX003 (ip), vehicle: saline",232 % of control
same,T/C,"endpoint: mean survival time, dose: 6.25 mg/kg/injection, schedule: Q04DX003 (ip), vehicle: saline",208 % of control
same,T/C,"endpoint: mean survival time, dose: 25.0 mg/kg/injection, schedule: Q04DX003 (ip), vehicle: saline with Tween-80",111 % of control
